Where two headings read alike, the source gives them in different places.
Tests used:
Plasmodium falciparum = test: P. falciparum-infected erythrocyte proliferation, SYBR green incorporation; assay type: cell-based; conditions: Plasmodium falciparum, Erythrocyte
Excerpt: The maintenance of Plasmodium falciparum cultures and conducting of in vitro inhibitor response assays have been previously described.

T. gondii = test: Intracellular T. gondii growth inhibition, luciferase expression in HFF cells; assay type: cell-based; conditions: Toxoplasma gondii; luciferase expressing RH or ME49 strain in HFF cells; trtE added 24 hours post-infection, read 24 hours later; purification method 1 or 2; read-out: EC50 against intracellular T. gondii
Protocol: To obtain sufficient trtE for in vitro and in vivo experiments, bacterial growth conditions were optimized, and a modified purification method was developed and validated by ESI-HRMS, LC/MS/MS and NMR (purification method 2; see methods and S8–S9 Figs). To determine the effective concentration at which trtE inhibited the growth of 50% of T. gondii parasites (EC50), HFF cells were seeded into 96 well plates and infected with luciferase expressing T. gondii tachyzoites. 24 hours post-infection two-fold serial dilutions of trtE, purified by method 1 or method 2, or DMSO vehicle control were added to the infected cells. 24 hours later, the infected cells were lysed and parasite growth quantified by luciferase expression. The EC50 of trtE against intracellular T. gondii was determined to be 3 nM regardless of purification method.
T. gondii parasite lines were maintained by passage in HFFs as previously described. […] Growth was monitored by luciferase expression using Bright-glo Luciferase assay system (Promega Corp., Madison, WI). […] Infected cells were then incubated for 72 hours before growth was quantified by luciferase expression. […]

B. bovis = test: Immunofluorescence assay of B. bovis CE11/p2xHA-glmS-gfp-bsd infected erythrocytes; assay type: cell-based, Babesia bovis; conditions: 50 nM trtE, 24 hours
Protocol: To evaluate the morphological changes in one of the intraerythrocytic parasites, B. bovis CE11/p2xHA-glmS-gfp-bsd parasites were exposed to 50 nM trtE or DMSO for 24 hours then fixed and processed for IFA. This B. bovis line expresses a soluble green fluorescent protein-blasticidin deaminase fusion protein (gfp-bsd),that was labeled with anti-GFP antibodies to visualize the parasite cytoplasm (Fig 3E, green fluorescence). […] Mis-localization of both the soluble gfp-bsd fusion protein (green label) and the RAP-1 protein (red label) was also observed. […]
For all IFAs, the investigator reading the slides and collecting images was blind to the sample treatment. […] 24 hours post treatment, infected cells were fixed with methanol, and parasites detected with rabbit anti-SAG1 antibody for T. gondii or rabbit anti-gp15 for C. parvum as we have described previously. […] This CE11 line is transiently transfected with a plasmid that expresses nanoluciferase from a B. divergens promoter and green fluorescence protein-blasticidin (gfp-bsd) from the selection cassette. […] Cells were incubated with rabbit anti-GFP (GenScript; Piscataway, NJ; cat. #A01388) and mouse monoclonal MBOC79B1 (a gift from G. Palmer) anti-BbRAP-1 protein antibodies, and reactions detected with goat anti-rabbit IgG-Alexafluor 488 and goat anti-mouse IgG-Alexafluor 594 antibodies (Invitrogen; Carlsbad, CA). […]

Gram negative bacteria = conditions: at μM concentrations; cited from earlier work
Gram positive bacteria = conditions: at μM concentrations; cited from earlier work
Cryptosporidium parvum = test: Nanoluciferase-expressing C. parvum inhibitor response assay in HCT-8 cells; assay type: cell-based; conditions: HCT-8 cells infected 24 hours, read 48 hours post-treatment, read-out: EC50 against C. parvum
Protocol: We had postulated that secondary metabolites generated by symbiotic bacteria of invertebrates might include compounds that target gregarines, an ancient group of apicomplexans found in most, and perhaps all, invertebrates. The only gregarines known to infect mammals are Cryptosporidium species, gastrointestinal parasites that cause diarrheal disease in humans and other mammals. HCT8 cells were infected with luciferase-expressing Cryptosporidium parvum parasites for 24 hours, then two-fold dilutions of trtE added to the infected cells. 48 hours after the addition of trtE, parasite growth was quantified by luciferase expression. […] To examine the morphology of trtE treated C. parvum parasites, HCT8 cells were infected with C. parvum oocysts for 8 hours. Extracellular parasites were washed off and medium containing 60 nM trtE added to the infected cells. After 12 hours of treatment, infected cells were fixed and processed for IFAs.
C. parvum oocysts expressing nanoluciferase (nLuc) were obtained from the Cryptosporidium Production Laboratory at the University of Arizona and inhibitor response assays were conducted as previously described.

For CC1CCC=CC=CCCC(O)CC(=O)CC2CCC(C)C3(O2)O[B-]24OC(C(=O)O1)C1(OC(CCC1C)CC(=O)CC(O)CCC=CC=CCCC(C)OC(=O)C3O2)O4 (stereo not shown) [trtE, tartrolon E], the EC50 (Plasmodium falciparum; Table 1, rounded, read-out: EC50 against P. falciparum (Table 1)) was 0.1 nM, the EC50 (Plasmodium falciparum; infected erythrocytes, 72 hours, read-out: EC50 against P. falciparum) was 0.105 nM and the EC50 (T. gondii) was 3 nM. The “Morphology of trtE treated B. bovis (IFA)” value (B. bovis) was “distinctly rounded morphology”, the “Activity of trtE against Gram negative bacteria” value (Gram negative bacteria) was “active” and the “Activity of trtE against Gram positive bacteria” value (Gram positive bacteria) was “active”. It also gave an EC50 (Cryptosporidium parvum) of 3.85 nM.

Reference: PMC7274485, “A symbiotic bacterium of shipworms produces a compound with broad spectrum anti-apicomplexan activity” (PLoS Pathogens, 2020)
